Measured values taken from patent US20030225044A1, “Method to increase serum levels of vitamins in animals including humans” (priority 2002, published 2003).

How the values were obtained:
[1] = Serum Vitamin A after nasal administration or drench (Example V); type: in vivo, beef steers
Description: (§1) These five treatments were:
(§2) Treatments were applied and cattle were bled via jugular venipuncture at 0, 6, and 24 hours post-dosing.

[2] = Serum Vitamin E after nasal administration or drench (Example VI); type: in vivo, beef steers
Description: as §1, §2

Substance: Vitamin A
- Average Serum Levels-Vitamin A ([1]; Treatment 2: positive control, 15 ml drench, 1,000,000 IU Vitamin A in 15 ml water, 6 Hours): 277 ng/mL
- Average Serum Levels-Vitamin A ([1]; Treatment 2: positive control, 15 ml drench, 1,000,000 IU Vitamin A in 15 ml water, 24 Hours): 247 ng/mL
- Average Serum Levels-Vitamin A ([1]; Treatment 2: positive control, 15 ml drench, 1,000,000 IU Vitamin A in 15 ml water, time 0): 230 ng/mL
- Average Serum Levels-Vitamin A ([1]; Treatment 3: solid form vitamins in 2 ml ethanol, 1,000,000 IU A, 100,000 IU D, 1000 IU B, 1 ml per nostril, 6 Hours): 344 ng/mL
- Average Serum Levels-Vitamin A ([1]; Treatment 3: solid form vitamins in 2 ml ethanol, 1,000,000 IU A, 100,000 IU D, 1000 IU B, 1 ml per nostril, 24 Hours): 326 ng/mL
- Average Serum Levels-Vitamin A ([1]; Treatment 3: solid form vitamins in 2 ml ethanol, 1,000,000 IU A, 100,000 IU D, 1000 IU B, 1 ml per nostril, time 0): 302 ng/mL
- Average Serum Levels-Vitamin A ([1]; Treatment 4: vitamin E, A, D oils, Tween 80, nicotinic acid, Carbopol 934P, Pemulen TR2, NaOH, water, 1,000,000 IU A, 1 ml per nostril, 6 Hours): 314 ng/mL
- Average Serum Levels-Vitamin A ([1]; Treatment 4: vitamin E, A, D oils, Tween 80, nicotinic acid, Carbopol 934P, Pemulen TR2, NaOH, water, 1,000,000 IU A, 1 ml per nostril, 24 Hours): 321 ng/mL
- Average Serum Levels-Vitamin A ([1]; Treatment 4: vitamin E, A, D oils, Tween 80, nicotinic acid, Carbopol 934P, Pemulen TR2, NaOH, water, 1,000,000 IU A, 1 ml per nostril, time 0): 321 ng/mL
- Average Serum Levels-Vitamin A ([1]; Treatment 5: vitamin E, A, D oils, Tween 80, Carbopol TR2, NaOH, water, 1,000,000 IU A, 1 ml per nostril, 6 Hours): 349 ng/mL
- Average Serum Levels-Vitamin A ([1]; Treatment 5: vitamin E, A, D oils, Tween 80, Carbopol TR2, NaOH, water, 1,000,000 IU A, 1 ml per nostril, 24 Hours): 353 ng/mL
- Average Serum Levels-Vitamin A ([1]; Treatment 5: vitamin E, A, D oils, Tween 80, Carbopol TR2, NaOH, water, 1,000,000 IU A, 1 ml per nostril, time 0): 343 ng/mL
- course of serum level of Vitamin A ([1]; Treatment #3: nasal administration of Vitamin A/ethanol solution (FIG. 8, curve 810)): decreased from 6 to 24 hours post-dosing after an initial increase in the first 6 hours
- course of serum level of Vitamin A ([1]; Treatment #4, nasal (FIG. 8, curve 830)): increased continuously from 6 hours to 24 hours post-dosing
- course of serum level of Vitamin A ([1]; Treatment #5, nasal (FIG. 8, curve 820)): increased from 0 hours to 24 hours post-dosing

Substance: Vitamin E
- Average Serum Level - Vitamin E ([2]; Treatment 2: positive control, 15 ml drench, 1200 IU Vitamin E in 15 ml water, 6 Hours): 1.8 micrograms/ml
- Average Serum Level - Vitamin E ([2]; Treatment 2: positive control, 15 ml drench, 1200 IU Vitamin E in 15 ml water, 24 Hours): 2.0 micrograms/ml
- Average Serum Level - Vitamin E ([2]; Treatment 2: positive control, 15 ml drench, 1200 IU Vitamin E in 15 ml water, time 0): 1.8 micrograms/ml
- Average Serum Level - Vitamin E ([2]; Treatment 3: solid form vitamins in 2 ml ethanol, 1,000,000 IU A, 100,000 IU D, 1000 IU E, 1 ml per nostril, 6 Hours): 2.7 micrograms/ml
- Average Serum Level - Vitamin E ([2]; Treatment 3: solid form vitamins in 2 ml ethanol, 1,000,000 IU A, 100,000 IU D, 1000 IU E, 1 ml per nostril, 24 Hours): 2.8 micrograms/ml
- Average Serum Level - Vitamin E ([2]; Treatment 3: solid form vitamins in 2 ml ethanol, 1,000,000 IU A, 100,000 IU D, 1000 IU E, 1 ml per nostril, time 0): 2.7 micrograms/ml
- Average Serum Level - Vitamin E ([2]; Treatment 4: vitamin E, A, D oils, Tween 80, nicotinic acid, Carbopol 934P, Pemulen TR2, NaOH, water, 1000 IU E, 1 ml per nostril, 6 Hours): 2.5 micrograms/ml
- Average Serum Level - Vitamin E ([2]; Treatment 4: vitamin E, A, D oils, Tween 80, nicotinic acid, Carbopol 934P, Pemulen TR2, NaOH, water, 1000 IU E, 1 ml per nostril, 24 Hours): 2.7 micrograms/ml
- Average Serum Level - Vitamin E ([2]; Treatment 4: vitamin E, A, D oils, Tween 80, nicotinic acid, Carbopol 934P, Pemulen TR2, NaOH, water, 1000 IU E, 1 ml per nostril, time 0): 2.7 micrograms/ml
- Average Serum Level - Vitamin E ([2]; Treatment 5: vitamin E, A, D oils, Tween 80, Pemulen TR2, NaOH, water, 1000 IU E, 1 ml per nostril, 6 Hours): 2.0 micrograms/ml
- Average Serum Level - Vitamin E ([2]; Treatment 5: vitamin E, A, D oils, Tween 80, Pemulen TR2, NaOH, water, 1000 IU E, 1 ml per nostril, 24 Hours): 2.2 micrograms/ml
- Average Serum Level - Vitamin E ([2]; Treatment 5: vitamin E, A, D oils, Tween 80, Pemulen TR2, NaOH, water, 1000 IU E, 1 ml per nostril, time 0): 2.1 micrograms/ml
- course of serum level of Vitamin E ([2]; Treatment #3, nasal (FIG. 9, curve 920)): increased from 6 hours to 24 hours post-dosing
- course of serum level of Vitamin E ([2]; Treatment #5, nasal (FIG. 9, curve 910)): increased from 6 hours to 24 hours post-dosing
